In brackets after ≈: the same amount, converted by molar mass. Where two headings read alike, the source gives them in different places.
What was measured:
Assay in all cases: Determination of Minimum Inhibitory Concentrations (MIC), agar dilution
Assay type in all cases: cell-based
E. coli 851E = details: Escherichia coli
Description: (§1) 1. Determination of Minimum Inhibitory Concentrations (MIC)
(§2) Serial two-fold dilutions of freshly prepared test solutions were made into Oxoid No. 1 Nutrient agar with or without added enrichment and poured into petri diches. Plates were inoculated with a multipoint inoculator with inoculum containing approximately […] of the organisms shown in the following Tables, all of which organisms are clinical isolates. The MIC, quoted in the Tables as µg/ml, was read after 18 hours incubation at 37°C as the lowest concentration which inhibited growth.

E. cloacae 1051E = details: Enterobacter cloacae
Description: as §1, §2

Micrococcus Sp 1810E = details: SP1810E
Description: as §1, §2

Staph.aureus 853E = details: Staphylococcus aureus
Description: as §1, §2

K. aerogenes 1522E = details: Klebsiella aerogenes
Description: as §1, §2

Pr. mirabilis 431E = details: Proteus mirabilis
Description: as §1, §2

H. influenzae 1184E = details: Haemophilus influenzae
Description: as §1, §2

E. cloacae 1321E = details: Enterobacter cloacae
Description: as §1, §2

| Compound | MIC (E. coli 851E; 851E, 18 h) [µg/mL] | MIC (E. cloacae 1051E; 1051E, 18 h) [µg/mL] | MIC (Micrococcus Sp 1810E; Micrococcus, 18 h) [µg/mL] | MIC (Staph.aureus 853E; 853E, 18 h) [µg/mL] | MIC (K. aerogenes 1522E; 1522E, 18 h) [µg/mL] | MIC (Pr. mirabilis 431E; 431E, 18 h) [µg/mL] | MIC (H. influenzae 1184E; 1184E, 18 h) [µg/mL] | MIC (E. cloacae 1321E; 1321E, 18 h) [µg/mL] | MIC (E. coli 851E; E. coli 851E, clinical isolate, Oxoid No. 1 Nutrient agar, read after 18 hours incubation at 37°C, read-out: MIC) [µg/mL] | MIC (E. cloacae 1051E; E. cloacae 1051E, clinical isolate, Oxoid No. 1 Nutrient agar, read after 18 hours incubation at 37°C, read-out: MIC) [µg/mL] | MIC (Micrococcus Sp 1810E; Micrococcus Sp 1810E, clinical isolate, Oxoid No. 1 Nutrient agar, read after 18 hours incubation at 37°C, read-out: MIC) [µg/mL] | MIC (Staph.aureus 853E; Staph.aureus 853E, clinical isolate, Oxoid No. 1 Nutrient agar, read after 18 hours incubation at 37°C, read-out: MIC) [µg/mL] | MIC (K. aerogenes 1522E; K. aerogenes 1522E, clinical isolate, Oxoid No. 1 Nutrient agar, read after 18 hours incubation at 37°C, read-out: MIC) [µg/mL] | MIC (Pr. mirabilis 431E; Pr. mirabilis 431E, clinical isolate, Oxoid No. 1 Nutrient agar, read after 18 hours incubation at 37°C, read-out: MIC) [µg/mL] | MIC (H. influenzae 1184E; H. influenzae 1184E, clinical isolate, Oxoid No. 1 Nutrient agar, read after 18 hours incubation at 37°C, read-out: MIC) [µg/mL] | MIC (E. cloacae 1321E; E. cloacae 1321E, clinical isolate, Oxoid No. 1 Nutrient agar, read after 18 hours incubation at 37°C, read-out: MIC) [µg/mL] |
| --- | --- | --- | --- | --- | --- | --- | --- | --- | --- | --- | --- | --- | --- | --- | --- | --- |
| CC(=O)SCCC1=C(C(=O)[O-])N2C(=O)CC2S1.[K+] (racemic) [Example 29, Potassium (5RS)-2-(2-acetylthioethyl)pen-2-em-3-carboxylate] | 1 | 16 | < 0.1 | < 0.1 | 2 | 1 | 8 | 1 | – | – | – | – | – | – | – | – |
| CN(C)C(=S)SCCC1=C(C(=O)O)N2C(=O)CC2S1 (racemic) [Example 38, (5RS)-2-(2-N,N-Dimethylthiocarbamoylthioethyl)pen-2-em-3-carboxylic acid] | – | – | – | – | – | – | – | – | 31 (≈ 97.3 µM) | > 250 | < 0.1 | < 0.1 | 31 (≈ 97.3 µM) | 16 (≈ 50.2 µM) | 2 (≈ 6.28 µM) | 31 (≈ 97.3 µM) |
| CCOC(=S)SCCC1=C(C(=O)[O-])N2C(=O)CC2S1.[K+] (racemic) [Example 36, Potassium (5RS)-2-(2-ethoxythiocarbonylthioethyl)pen-2-em-3-carboxylate] | 8 | 62 | < 0.1 | < 0.1 | 16 | 8 | 4 | 16 | – | – | – | – | – | – | – | – |
